Entries after “also recorded” stand apart in the source; their conditions may differ.
How the values were obtained:
Assay type in all cases: cell-based
[1] = tested on: Drp1-Ser616 phosphorylation; test: Drp1 ratio assay with chemiluminescence format; settings: ADP 20 μM; for Time to maximum Drp1 ratio after exposure to agonist: arachidonic acid 500 μg/mL, SFLLRN 25 μM, elevated by 5 minutes
Method: Samples were subsequently lysed and assessed by either colorimetric or chemiluminescence ELISAs. […] Samples were activated with the indicated platelet agonist [A: ADP (20 μM); […] Samples were left at room temperature for the indicated amount of time prior to freezing (−80° C.) and were subsequently analyzed using the Drp1 ratio assay with a chemiluminescence format. […] FIGS. 12A-12C show activation time studies with various platelet agonists. Platelets were exposed to agonists and subsequently analyzed using the Drp1 ratio assay with a chemiluminescence format.

[2] = tested on: Drp1-Ser616 phosphorylation; test: Western blot of Drp1 Ser616 phosphorylation in platelets; settings: for Drp1 phosphorylation at Ser616 elicited by the agent: platelets incubated with the agent; for Effect on SFLLRN-induced (PAR1-mediated) Drp1-Ser616 phosphorylation: platelets
[3] = tested on: Drp1-Ser637 phosphorylation; test: Western blot of Drp1 Ser637 phosphorylation in platelets
[4] = tested on: Drp1-Ser616 phosphorylation; test: MAP kinase inhibition studies, ELISA of agonist-induced Drp1-Ser616 phosphorylation in twice washed platelets; settings: agonists SFLLRN, U46619, collagen, ADP or AYPGKF; SB203580 20 μM, PD0325901 5 μM, SP600125 5 μM
Method: Using twice washed platelets, 400 μL aliquots were incubated at 37° C. for 30 min with SB203580 (20 μM), PD0325901 (5 μM), SP600125 (5 μM) or left untreated and then activated with respective agonist for 10 min at 37° C. Subsequently, 100 μL of 5×RIPA buffer was added and samples were lysed on ice for minimum of 15 min. Samples were stored at −80° C. until assayed by ELISA.
(§1) Capture antibody (Ms Drp1 mAb) diluted in Tris-buffered saline (TBS) was incubated on plates at RT (2 hrs) or at 4° C. overnight. […] Wells were blocked with 3% BSA in TBST for a minimum of 1.5 hrs. […] Wells were again washed with TBST and incubated with either Rb Drp1 or p-Drp1 (Ser616) mAb at RT for 1 hr.

[5] = tested on: Drp1-Ser616 phosphorylation; test: Drp1-Ser616 phosphorylation assay in whole blood; settings: for Effect on SFLLRN-induced phospho-Drp1-Ser616 signal: whole blood; for Stimulation of Drp1-Ser616 phosphorylation: whole blood (thrombin: whole blood and platelet rich plasma)
[6] = tested on: Drp1-Ser616 phosphorylation; test: Arachidonic acid-induced Drp1-Ser616 phosphorylation in platelets, ELISA dose response; settings: Platelet; [arachidonic acid]=10 μg/mL; read-out: IC50, inhibition of arachidonic acid-induced phosphorylation of Drp1-Ser616
Method: Dilutions of Tyrode's buffer+3 mM aspirin were prepared. A modified platelet wash protocol was then performed. PRP [supplemented with 20% ACD (v/v) and PGE1 (1 μM)] was spun at 800 g for 12 min. After removal of the supernatant, platelet pellet was resuspended in Tyrode's buffer and allowed to rest at 37° C. for minimum of 25 min. Platelets were counted by Hemavet and were again supplemented with ACD and PGE1 before being aliquoted into microcentrifuge tubes and spun at 800 g for 12 min. Aliquots were of sufficient volume to permit a final platelet count of approximately 4×10^5/μL when platelet pellet was resuspended in 400 μL of Tyrode's buffer or Tyrode's buffer/aspirin dilution. After resuspension, samples were incubated at 37° C. for 1 hr before being activated for 10 min at 37° C. with arachidonic acid (Bio Data Corp. Horsham, PA) at a final concentration of 10 μg/mL. Samples were lysed with 100 μL 5×RIPA buffer on ice for a minimum of 15 min before being stored at −80° C. until assayed by ELISA.
as §1

[7] = tested on: Drp1-Ser616 phosphorylation; test: SFLLRN-induced Drp1-Ser616 phosphorylation in washed platelets, ELISA dose response (phospho-Drp1-Ser616/total Drp1); settings: Platelet; read-out: IC50, inhibition of SFLLRN-induced Drp1-Ser616 phosphorylation
Method: Serial dilutions of Vorapaxar and Cangrelor were prepared in DMSO. […] Vehicle only samples were also prepared and incubated at 37° C. Samples were subsequently lysed with 5×RIPA buffer and stored at −80° C. until assayed by ELISA.
as §1

platelet aggregation = test: Platelet aggregometry, ADP-activated platelets; settings: ADP 20 μM, compared with Drp1 ratio assay

`Nc1ncnc2c1ncn2[C@@H]1O[C@H](COP(=O)(O)OP(=O)(O)O)[C@@H](O)[C@H]1O` [ADP] was tested, and the “Time to maximum Drp1 ratio after exposure to agonist” value (“Time to maximum Drp1 ratio” for short) [1] was “approximately 12. 5 minutes” and the “Drp1 phosphorylation at Ser616 elicited by the agent” value (shortened to “Drp1 phosphorylation”) [2] was “resulted in 5616-Drp1 phosphorylation”.
For `CCCCCCOC(=O)[C@]1(O)C[C@@H]2O[C@@]1(C)n1c3ccccc3c3c4c(c5c6ccccc6n2c5c31)C(=O)NC4` [KT5720], the “Effect on forskolin-mediated Drp1-Ser637 phosphorylation” value [3] was “completely abolished”.
In the case of `CNc1nc(Cl)nc2c1ncn2CC(COC(=O)C(C)(C)C)COC(=O)C(C)(C)C` [MRS 2395], the “Effect on ADP-induced Drp1-Ser616 phosphorylation” value ([2]; platelets incubated with ADP) is reported as “inhibited”.
For `O=C(NOC[C@H](O)CO)c1ccc(F)c(F)c1Nc1ccc(I)cc1F` [PD0325901], the “Effect on agonist-induced Drp1-Ser616 phosphorylation” value [4] was “modest inhibition”.
For `Cn1cc(C2=C(c3cn(CCCSC(=N)N)c4ccccc34)C(=O)NC2=O)c2ccccc21` [Ro 31-8220], the “Effect on SFLLRN-induced (PAR1-mediated) Drp1-Ser616 phosphorylation” value [2] was “failed to inhibit”.
In the case of `C[S+]([O-])c1ccc(-c2nc(-c3ccncc3)c(-c3ccc(F)cc3)[nH]2)cc1` (stereo not shown) [SB203580], the “Effect on SFLLRN-induced (PAR1-mediated) Drp1-Ser616 phosphorylation” value [2] is reported as “inhibited”, the “Effect on agonist-induced Drp1-Ser616 phosphorylation” value [4] is reported as “potently blocked” and the “Effect on SFLLRN-induced phospho-Drp1-Ser616 signal” value [5] is reported as “inhibited”.
With `Oc1c2ccccc2c2c3c(cccc13)N=N2` [SP600125] the “Effect on agonist-induced Drp1-Ser616 phosphorylation” value [4] was “failed to inhibit”.
In the case of `CCCCC[C@H](O)/C=C/[C@@H]1[C@@H](C/C=C\CCCC(=O)O)[C@H]2CO[C@@H]1C2` [U46619], the “Drp1 phosphorylation” value [2] is reported as “Phosphorylation of Drp1 at S616 was observed” and the “Stimulation of Drp1-Ser616 phosphorylation” value (“Stimulation” for short) [5] is reported as “significant stimulation”.
With `CCCCC/C=C\C/C=C\C/C=C\C/C=C\CCCC(=O)O` [arachidonic acid] the “Time to maximum Drp1 ratio” value [1] was “approximately 12. 5 minutes” and the “Stimulation” value [5] was “significant stimulation”.
In the case of `CC(=O)Oc1ccccc1C(=O)O` [aspirin, acetylsalicylic acid], the IC50 [6] is reported as roughly 1000 nM.
For `CSCCNc1nc(SCCC(F)(F)F)nc2c1ncn2[C@@H]1O[C@H](COP(=O)(O)OP(=O)(O)C(Cl)(Cl)P(=O)(O)O)[C@@H](O)[C@H]1O` [cangrelor], the IC50 [7] was roughly 2 nM, the “Sensitivity of Drp1 ratio assay to inhibition” value ([1]; compared with platelet aggregometry) was “equally sensitive” and the “Sensitivity of platelet aggregometry to inhibition” value (platelet aggregation) was “equally sensitive”.
For `O=C1CCc2cc(OCCCCc3nnnn3C3CCCCC3)ccc2N1` [cilostazol], the “Effect on SFLLRN-induced (PAR1-mediated) Drp1-Ser616 phosphorylation” value [2] was “blocks; also recorded: sensitive; also recorded: prevents phophorylation at Ser616”.
`COC(=O)[C@H](c1ccccc1Cl)N1CCc2sccc2C1` [clopidogrel] was tested, and the “Effect on SFLLRN-induced phospho-Drp1-Ser616 signal” value [5] was “inhibited”.
With `CCOC(=O)N[C@@H]1CC[C@@H]2[C@@H](C1)C[C@H]1C(=O)O[C@H](C)[C@H]1[C@H]2/C=C/c1ccc(-c2cccc(F)c2)cn1` [vorapaxar] the IC50 [7] was roughly 5 nM and the “Effect on SFLLRN-induced phospho-Drp1-Ser616 signal” value [5] was “inhibited”.
For SFLLRN, the “Time to maximum Drp1 ratio” value [1] was “approximately 12. 5 minutes”, the “Drp1 phosphorylation” value [2] was “Phosphorylation of Drp1 at S616 was observed” and the “Time at which phospho-Drp1-Ser616 signal reaches peak” value ([5]; following activation of platelets by SFLLRN (FIG. 6C)) was 15 min. The “Increase in phospho-Drp1-Ser616 to total Drp1” value ([5]; stimulation of whole blood) was “greater than 2 fold”.
With collagen the “Drp1 phosphorylation” value [2] was “Phosphorylation of Drp1 at S616 was observed”.
With thrombin the “Stimulation” value [5] was “significant increases”.

From patent US12235278B2, “Compositions and methods for evaluation of antiplatelet drug sensitivity” (Beth Israel Deaconess Medical Center, Inc., priority 2018, dated 2025)
